Measurements reported in patent US9650423B2, “Long peptides of 22-45 amino acid residues that induce and/or enhance antigen specific immune responses” (priority 2000, dated 2017).
Where “and” joins values, the source holds several entries; their conditions need not be identical. Identical values can stand only once. Residues, ends and D or L forms follow the SMILES beside them. No end group written: not given here.

Tests used:
HLA-DR7 (DRB1*0701) = HLA-DR7 (DRB1*0701) (Homo sapiens, UniProt P01903+P01911, A100R/A102G/A103Q/D57E/D86V/E43K/F76Y/K127E/L162R/M171V/P40G/Q125H/Q99D/R33Q/R42Y/R54Q/S133A/S66F/T210M/V115G/Y107V/Y59L/Y89S); conditions: read-out: Binding DR7, IC50
HLA-DR1 (DRB*0101) = biological target: T1, HLA-DR1 (DRB*0101) (Homo sapiens, UniProt P01903+P01911, A100R/D57E/F55L/F60I/F76Y/I96L/L162R/M171V/P40L/Q125E/R42F/V115G/Y59C); assay: biochemical; type: binding; conditions: read-out: Binding DR1, IC50
T1 construct: endogenous in cells; host or cells: LG2.1 B-lymphoblastic cell line, homozygous for HLA-DR

HLA-DR2 (DRB1*0201) = assay: HLA-DR-peptide binding assay; parameters: species or system human; conditions: HPV16-E7 22-mer peptides; >70 indicates undetectable binding; read-out: Binding DR2, IC50
HLA-DR3 (DRB*0301) = assay: HLA-DR-peptide binding assay; parameters: species or system human; conditions: HPV16-E7 22-mer peptides; >70 indicates undetectable binding; read-out: Binding DR3, IC50
[1] = tested on: HPV16 E7-specific T-helper clones; assay: HPV16 E7-specific Th-clones: proliferation and IFNγ production; type: cell-based, human; conditions: Th-clone from HLA-DR15, 4 and DQ6,7 positive PBMC raised against peptide E741-62
Procedure: Peptide-specific T-cell bulk cultures were generated as described previously (van der Burg et al., 1999) using either the E7 22-mer or E7 35-mer peptides. Specific proliferation was measured by incubation of 50,000 responders with an equal amount of irradiated (30Gy) APC (autologous PBMC unless indicated otherwise) and peptide or protein as indicated. E7-peptide and -protein-specific bulk T-cells were cloned by limiting dilution as described previously (van der Burg et al., 1999).
To determine specific excretion of cytokines, T-cell clones were stimulated by incubation of 50.000 T-cells with an equal amount of APC (30Gy) together with 10 μg/ml peptide, control peptide, E7 protein or control protein as indicated. After 24 hours of incubation, supernatant was harvested and replicate wells were pooled. Cytokine production was measured by Enzyme-Linked Immunosorbent Assay (ELISA) as described previously (van der Burg et al., 1999).

HLA-DR4 (DRB*0401) = assay: HLA-DR-peptide binding assay; parameters: species or system human; conditions: HPV16-E7 22-mer peptides; >70 indicates undetectable binding; read-out: Binding DR4, IC50
HLA-DR 1, 2, 3, 4 and 7 = assay: HLA-DR-peptide binding assay, summary over the molecules tested; parameters: species or system human; conditions: E7 peptides tested on HLA-DR 1, 2, 3, 4 and 7
Procedure: The analysis of peptide binding to purified DR molecules was performed using N-terminally fluorescence-labelled standard peptides.

[2] = tested on: PBMC of HLA-DR1 positive blood donors; assay: Proliferation of PBMC stimulated with long E6 peptides; type: cell-based, human; conditions: two HLA-DR1 positive donors, stimulated with pool of two 35-mer peptides covering E6 109-158
Procedure: Furthermore, PBMC of two different HLA-DR1 positive blood donors were stimulated with a pool of two long 35-mer peptides that together covered E6 109-158. […] A CD4+ T-helper clone derived from one of these bulks was analysed further and specifically proliferated and produced IFNγ when stimulated with HPV16 E6 peptide and HPV16 E6 protein in a HLA-DR1 restricted manner (FIG. 16).
FIGS. 16a-16d depict a peptide E6127-158 induced T-cell response that recognizes naturally processed Ag. PBMC from a healthy HLA-DR1 positive blood donor were stimulated four times with peptide E6127-158. FIGS. 16a and 16b are entitled E6 127-158 stimulated HLA-DR1+PBMC. Proliferation of the bulk T-cell culture (top, left, 16a) and IFNγ production (top, right, 16b) is depicted. FIGS. 16c and 16d are entitled E6 127-158 stimulated PBMC derived clone 9 HLA-DR restriction in proliferation and IFNγ production. The specific proliferation (bottom, left, 16c) and IFNγ production (bottom, right, 16d) of the T-helper clone, derived from the bulk T-cell culture, and HLA-restriction when stimulated with E6127-158, or E6 protein is depicted. (See, also, FIGS. 1a-1d and associated descriptions).

[3] = tested on: E7 49-57-specific CD8+ T cells; assay: Vaccination, H-2Db E7 49-57 tetramer staining of spleen cultures; type: in vivo, C57BL/6 mice; conditions: B6 mice
Procedure: (§1) Immunization strategies. C57BL/6 mice were injected subcutaneously with either 50 μg E7^49-57 peptide or 150 μg E7^43-77 35-mer dissolved in PBS in order to achieve similar molar levels of the E7^49-57 CTL epitope in both cases. Combinations with various adjuvantia were tested. In the case of IFA and Montanide, the dissolved peptides were emulsified in 50% of these respective substances. ODN-CpG (50 μg/mouse), MPL (10 μg/mouse) and GM-CSF (4 μg/mouse) were all dissolved in PBS and mixed with the peptides before subcutaneous vaccination. The total injected volume was 200 μl/mouse.
T cell cultures. T cells were obtained from immunized mice by culturing spleen cells (5×10^6 cells/well of a 24-wells plate) in complete medium in the presence of 0.5×10^6 E7^49-57-expressing cells (tumor cell line 13.2) or, when indicated, in the presence of D1 cells.
Tetramer staining. Spleen cultures, stimulated with tumor cell line 13.2 for seven days, were transferred at an amount of 40×10^4 per well to 96-well V-bottom microtiter plates and washed twice with PBS/BSA 0.5%. Subsequently, PE-labelled E749-57-containing tetramer was added. After 30 minutes of incubation at room temperature, cells were washed twice with PBS/BSA 0.5% and incubated with FITC-labelled anti CD8b Ab for 30 minutes. Subsequently cells were washed twice in PBS/BSA 0.5%, suspended in PBS/BSA 0.5% containing Propidium Iodide (PI) (0.5) μg/ml) and transferred to tubes. Cell samples were analysed in a FACSCalibur flow cytometer (Becton Dickinson, San Jose, Calif., USA) using CellQuest software. A total of 20×10^4 events was analysed for fluorescence intensity. Debris was gated out using the PI staining and subsequently the CD8^+ fraction was gated. […] As a positive control the HPV16 E7 specific CTL clone 9.5 was used.

[4] = tested on: E7 43-77-specific IFNγ-producing CD4+ T cells; assay: Vaccination, intracellular IFN-γ staining of CD4+ T cells; type: in vivo, C57BL/6 mice; conditions: B6 mice, vaccinated once, IFA
Procedure: as §1
Before use, the D1 cells were incubated for 16 hours with the E7^43-77 35-mer and subsequently activated by adding LPS (10 μg/ml) for 6 hours and then thoroughly washed. Complete medium consists of Iscove's Modified Dulbecco's Medium (IMDM; BioWhittaker, Walkersville, Md., USA) supplemented with 8% FCS, 100 IU/ml penicillin, 2 mM glutamine (ICN, Aurora, Ohio, USA) and 30 μM 2-ME (Merck, Darmstadt, Germany). Cultures were maintained at 37° C. in humidified air containing 5% CO2. No exogenous IL-2 was added. […]
Intracellular cytokine staining. […] Subsequently, the percentage of CD8^+ and CD4^+ IFN-γ producing T cells was measured as described before (van der Burg et al., 2001).

[5] = tested on: E7 49-57-specific CD8+ T cells; assay: Vaccination, H-2Db E7 49-57 tetramer staining of spleen cultures; type: in vivo, C57BL/6 mice; conditions: MHC class II−/− mice
Ad5E1-expressing tumors = conditions: Toes et al., 1996a, 1996b; cited from earlier work
[6] = tested on: PBMC or cord blood cells (CBC); type: cell-based, human

CC[C@H](C)[C@H](NC(=O)[C@H](CC(N)=O)NC(=O)[C@H](Cc1ccc(O)cc1)NC(=O)[C@H](Cc1c[nH]cn1)NC(=O)[C@H](C)NC(=O)[C@H](CCCNC(=N)N)NC(=O)[C@H](CC(=O)O)NC(=O)[C@@H]1CCCN1C(=O)[C@H](CCC(=O)O)NC(=O)[C@H](C)NC(=O)[C@H](CCC(N)=O)NC(=O)CNC(=O)[C@H](C)NC(=O)[C@@H]1CCCN1)C(=O)N[C@H](C(=O)N[C@H](C(=O)N[C@@H](Cc1ccccc1)C(=O)N[C@@H](CS)C(=O)N[C@@H](CS)C(=O)N[C@@H](CCCCN)C(=O)N[C@@H](CS)C(=O)N[C@@H](CC(=O)O)C(=O)O)[C@@H](C)O)C(C)C [E7 41-62] (H-PAGQAEPDRAHYNIVTFCCKCD-OH; N-terminus and C-terminus assumed)
IC50 (HLA-DR7 (DRB1*0701)): > 70 µM
IC50 (HLA-DR1 (DRB*0101)): 7.4 µM
IC50 (HLA-DR2 (DRB1*0201)): 50 µM
IC50 (HLA-DR3 (DRB*0301)): 55 µM
response of HLA-DR15 restricted Th-clone to pulsed APC [1]: specifically respond
IC50 (HLA-DR4 (DRB*0401)): 38 µM
HLA-DR molecules bound (HLA-DR 1, 2, 3, 4 and 7): bound to DR1, 2, 3 and 4

E6 121-142: 22-mer peptide, amino acids 121-142 of HPV16 E6 protein (EKQRHLDKKQRFHNIRGRWTGR; UniProt P03126 121-142, looked up, fragment)
specific proliferation of PBMC [2]: proliferated specifically

E6 127-158: peptide, amino acids 127-158 of HPV16 E6 protein (DKKQRFHNIRGRWTGRCMSCCRSSRTRRETQL)
specific proliferation of PBMC [2]: proliferated specifically

E6 protein: recombinant HPV16-E6 protein produced in E. coli (DKKQRFHNIRGRWTGRCMSCCRSSRTRRETQL) [reference compound]
specific proliferation of PBMC [2]: proliferated specifically

GQAEPDRAHYNIVTFCCKCDSTLRLCVQSTHVDIR [E7 43-77]
E7 49-57-specific CD8+ T cell response ([3]; prime-boost, IFA): vigorous
mice with E7 49-57-specific CTL response ([3]; primed and boosted 50 days later, IFA): 9/11
E7 49-57-specific CD8+ T cells, mean ([3]; primed and boosted, IFA): 19%
E7 49-57-specific CD8+ T cells, range ([3]; primed and boosted, IFA): 5-40%
E7 49-57-specific CTL response ([3]; vaccinated once, GM-CSF and IFA): moderate
CD8+ T cells stained with tetramers ([3]; vaccinated once, IFA, responders): ~5%
mice responding to the vaccine (tetramer staining) ([3]; vaccinated once, IFA, spleens day 10): 3 out of 9
mice with E7 49-57-specific CTL responses ([3]; vaccinated once, MPL or ODN-CpG): in all mice
level of the CTL response ([3]; vaccinated once, MPL or ODN-CpG, majority of animals): up to 40 % of CD8+ T cells
E7 49-57-specific CTL response ([3]; vaccinated once, Montanide adjuvant): no responses were observed
E7 49-57-specific CTL response ([3]; vaccinated once, combined with anti-CD40 antibody or GM-CSF): no or minimal CTL responses
E7 43-77-specific IFNγ-producing CD4+ T cells [4]: ≥ 5%
response of HLA-DR15 restricted Th-clone to pulsed APC [1]: specifically respond
CTL responses ([5]; one vaccination, ODN-CpG): robust CTL responses
number of E7 49-57-specific CTL ([5]; prime-boost, IFA): far lower than found in B6 mice after two vaccinations

SGPSNTPPEI (minimal E1A-derived CTL epitope)
effect of peptide vaccination on outgrowth of Ad5E1-expressing tumors (Ad5E1-expressing tumors): enhances rather than inhibits the growth

STHVDIRTLEDLLMGTLGIVCP [E7 71-92]
IC50 (HLA-DR7 (DRB1*0701)): > 70 µM
IC50 (HLA-DR1 (DRB*0101)): 12 µM
number of antigen-specific cells (IFNγ ELISPOT) [6]: 2 per 100,000 cord blood cells or PBMC and <1 per 100,000 cord blood cells or PBMC
IC50 (HLA-DR2 (DRB1*0201)): 2 µM
IC50 (HLA-DR3 (DRB*0301)): > 70 µM
IC50 (HLA-DR4 (DRB*0401)): > 70 µM
